Assays:
Experiment in all cases: relative viability (nuclei count vs DMSO), 5 days (fraction); higher = more cells survive
NCI-H2085 = tested on: NCI-H2085
Summary of the method: (§1)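 Dosing by pin tool came one day after lung cancer cell lines were seeded in 1536-well plates, using either one drug or a fixed anchor-drug dose plus five library-drug doses (not always all listed) in √10 steps. After 5 days, nuclei were counted on 4× images. Relative viability is treated-well nuclei count divided by vehicle-well nuclei count, and values are medians of duplicate plates.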

LXF-289 = tested on: LXF-289
Summary of the method: as §1

NCI-H1993 = tested on: NCI-H1993
Summary of the method: as §1

ABC-1 = tested on: ABC-1
Summary of the method: as §1

CAL-12T = tested on: CAL-12T
Summary of the method: as §1

HCC-15 = tested on: HCC-15
Summary of the method: as §1

EPLC-272H = tested on: EPLC-272H
Summary of the method: as §1

HCC-78 = tested on: HCC-78
Summary of the method: as §1

NCI-H2126 = tested on: NCI-H2126
Summary of the method: as §1

NCI-H1755 = tested on: NCI-H1755
Summary of the method: as §1

NCI-H358 = tested on: NCI-H358
Summary of the method: as §1

NCI-H322M = tested on: NCI-H322M
Summary of the method: as §1

NCI-H441 = tested on: NCI-H441
Summary of the method: as §1

ChaGo-K-1 = tested on: ChaGo-K-1
Summary of the method: as §1

NCI-H1915 = tested on: NCI-H1915
Summary of the method: as §1

NCI-H1666 = tested on: NCI-H1666
Summary of the method: as §1

NCI-H3122 = tested on: NCI-H3122
Summary of the method: as §1

NCI-H1975 = tested on: NCI-H1975
Summary of the method: as §1

EMC-BAC-2 = tested on: EMC-BAC-2
Summary of the method: as §1

COR-L 105 = tested on: COR-L 105
Summary of the method: as §1

NCI-H2023 = tested on: NCI-H2023
Summary of the method: as §1

HOP-62 = tested on: HOP-62
Summary of the method: as §1

UMC-11 = tested on: UMC-11
Summary of the method: as §1

C=C1C(=O)O[C@@H](CCCCCCCC)[C@@H]1C(=O)O [C-75] + Cc1cc(Nc2cc(N3CCN(C)CC3)nc(Sc3ccc(NC(=O)C4CC4)cc3)n2)n[nH]1 [Tozasertib] (partner 0.1 µM)
relative viability (NCI-H2085; first compound 0.08 µM): 0.798 | relative viability (NCI-H2085; first compound 0.253 µM): 0.746 | relative viability (NCI-H2085; first compound 0.8 µM): 0.79 | relative viability (NCI-H2085; first compound 2.53 µM): 0.803 | relative viability (NCI-H2085; first compound 8 µM): 0.67 | relative viability (LXF-289; first compound 0.08 µM): 0.193 | relative viability (LXF-289; first compound 0.253 µM): 0.18 | relative viability (LXF-289; first compound 0.8 µM): 0.183 | relative viability (LXF-289; first compound 2.53 µM): 0.119 | relative viability (LXF-289; first compound 8 µM): 0.182 | relative viability (NCI-H1993; first compound 0.08 µM): 0.611 | relative viability (NCI-H1993; first compound 0.253 µM): 0.623 | relative viability (NCI-H1993; first compound 0.8 µM): 0.59 | relative viability (NCI-H1993; first compound 2.53 µM): 0.495 | relative viability (NCI-H1993; first compound 8 µM): 0.529 | relative viability (ABC-1; first compound 0.08 µM): 0.137 | relative viability (ABC-1; first compound 0.253 µM): 0.163 | relative viability (ABC-1; first compound 0.8 µM): 0.198 | relative viability (ABC-1; first compound 2.53 µM): 0.173 | relative viability (ABC-1; first compound 8 µM): 0.183 | relative viability (CAL-12T; first compound 0.08 µM): 0.281 | relative viability (CAL-12T; first compound 0.253 µM): 0.423 | relative viability (CAL-12T; first compound 0.8 µM): 0.312 | relative viability (CAL-12T; first compound 2.53 µM): 0.281 | relative viability (CAL-12T; first compound 8 µM): 0.345 | relative viability (HCC-15; first compound 0.08 µM): 0.457 | relative viability (HCC-15; first compound 0.253 µM): 0.608 | relative viability (HCC-15; first compound 0.8 µM): 0.407 | relative viability (HCC-15; first compound 2.53 µM): 0.427 | relative viability (HCC-15; first compound 8 µM): 0.39 | relative viability (EPLC-272H; first compound 0.08 µM): 0.299 | relative viability (EPLC-272H; first compound 0.253 µM): 0.243 | relative viability (EPLC-272H; first compound 0.8 µM): 0.22 | relative viability (EPLC-272H; first compound 2.53 µM): 0.25 | relative viability (EPLC-272H; first compound 8 µM): 0.208 | relative viability (HCC-78; first compound 0.08 µM): 0.431 | relative viability (HCC-78; first compound 0.253 µM): 0.505 | relative viability (HCC-78; first compound 0.8 µM): 0.458 | relative viability (HCC-78; first compound 2.53 µM): 1.28 | relative viability (HCC-78; first compound 8 µM): 0.444 | relative viability (NCI-H2126; first compound 0.08 µM): 0.873 | relative viability (NCI-H2126; first compound 0.253 µM): 0.949 | relative viability (NCI-H2126; first compound 0.8 µM): 0.841 | relative viability (NCI-H2126; first compound 2.53 µM): 0.795 | relative viability (NCI-H2126; first compound 8 µM): 0.777 | relative viability (NCI-H1755; first compound 0.08 µM): 0.568 | relative viability (NCI-H1755; first compound 0.253 µM): 0.638 | relative viability (NCI-H1755; first compound 0.8 µM): 0.552 | relative viability (NCI-H1755; first compound 2.53 µM): 0.512 | relative viability (NCI-H1755; first compound 8 µM): 0.572 | relative viability (NCI-H358; first compound 0.08 µM): 0.0979 | relative viability (NCI-H358; first compound 0.253 µM): 0.104 | relative viability (NCI-H358; first compound 0.8 µM): 0.104 | relative viability (NCI-H358; first compound 2.53 µM): 0.0847 | relative viability (NCI-H358; first compound 8 µM): 0.103 | relative viability (NCI-H322M; first compound 0.08 µM): 0.46 | relative viability (NCI-H322M; first compound 0.253 µM): 0.453 | relative viability (NCI-H322M; first compound 0.8 µM): 0.458 | relative viability (NCI-H322M; first compound 2.53 µM): 0.302 | relative viability (NCI-H322M; first compound 8 µM): 0.487 | relative viability (NCI-H441; first compound 0.08 µM): 0.624 | relative viability (NCI-H441; first compound 0.253 µM): 0.895 | relative viability (NCI-H441; first compound 0.8 µM): 0.713 | relative viability (NCI-H441; first compound 2.53 µM): 0.543 | relative viability (NCI-H441; first compound 8 µM): 0.729 | relative viability (ChaGo-K-1; first compound 0.08 µM): 0.215 | relative viability (ChaGo-K-1; first compound 0.253 µM): 0.223 | relative viability (ChaGo-K-1; first compound 0.8 µM): 0.196 | relative viability (ChaGo-K-1; first compound 2.53 µM): 0.195 | relative viability (ChaGo-K-1; first compound 8 µM): 0.231 | relative viability (NCI-H1915; first compound 0.08 µM): 0.405 | relative viability (NCI-H1915; first compound 0.253 µM): 0.403 | relative viability (NCI-H1915; first compound 0.8 µM): 0.432 | relative viability (NCI-H1915; first compound 2.53 µM): 0.409 | relative viability (NCI-H1915; first compound 8 µM): 0.429 | relative viability (NCI-H1666; first compound 0.08 µM): 0.653 | relative viability (NCI-H1666; first compound 0.253 µM): 0.66 | relative viability (NCI-H1666; first compound 0.8 µM): 0.647 | relative viability (NCI-H1666; first compound 2.53 µM): 0.613 | relative viability (NCI-H1666; first compound 8 µM): 0.499 | relative viability (NCI-H3122; first compound 0.08 µM): 0.414 | relative viability (NCI-H3122; first compound 0.253 µM): 0.514 | relative viability (NCI-H3122; first compound 0.8 µM): 0.403 | relative viability (NCI-H3122; first compound 8 µM): 0.518 | relative viability (NCI-H1975; first compound 0.08 µM): 0.873 | relative viability (NCI-H1975; first compound 0.253 µM): 0.757 | relative viability (NCI-H1975; first compound 0.8 µM): 0.684 | relative viability (NCI-H1975; first compound 2.53 µM): 0.732 | relative viability (NCI-H1975; first compound 8 µM): 0.78 | relative viability (EMC-BAC-2; first compound 0.08 µM): 0.279 | relative viability (EMC-BAC-2; first compound 0.253 µM): 0.288 | relative viability (EMC-BAC-2; first compound 0.8 µM): 0.294 | relative viability (EMC-BAC-2; first compound 2.53 µM): 0.235 | relative viability (EMC-BAC-2; first compound 8 µM): 0.315 | relative viability (COR-L 105; first compound 0.08 µM): 0.366 | relative viability (COR-L 105; first compound 0.253 µM): 0.167 | relative viability (COR-L 105; first compound 0.8 µM): 0.412 | relative viability (COR-L 105; first compound 2.53 µM): 0.351 | relative viability (COR-L 105; first compound 8 µM): 0.341 | relative viability (NCI-H2023; first compound 0.08 µM): 0.407 | relative viability (NCI-H2023; first compound 0.253 µM): 0.443 | relative viability (NCI-H2023; first compound 0.8 µM): 0.302 | relative viability (NCI-H2023; first compound 2.53 µM): 0.384 | relative viability (NCI-H2023; first compound 8 µM): 0.409 | relative viability (HOP-62; first compound 0.08 µM): 0.373 | relative viability (HOP-62; first compound 0.253 µM): 0.389 | relative viability (HOP-62; first compound 0.8 µM): 0.363 | relative viability (HOP-62; first compound 2.53 µM): 0.385 | relative viability (HOP-62; first compound 8 µM): 0.335 | relative viability (UMC-11; first compound 0.08 µM): 0.213 | relative viability (UMC-11; first compound 0.253 µM): 0.202 | relative viability (UMC-11; first compound 0.8 µM): 0.209 | relative viability (UMC-11; first compound 2.53 µM): 0.161 | relative viability (UMC-11; first compound 8 µM): 0.227

— the supplement of paper PMC10307832
